Assays:
[1] = tested on: stomata of M82 and rop9 mutant cotyledons; experiment: Measurements of stomata aperture (width/length) in excised cotyledons; assay type: cell-based, Tomato (S. lycopersicum)
Method: […] assays were carried out as previously described (Puli, M. R. et al., J Exp Bot 63, 1349-1356, 2012). with the following modifications. Cotyledons were excised from M82 or rop9 mutants (10-15 days after sowing in soil) and were transferred immediately to stomatal opening buffer (10 mM MES-KOH, pH 7.0, 50 mM KCl) with or without ABA and treated for 3 h under light (110 to 120 μE m^−2 s^−1). Mock-treated controls were treated with 0.1% vol/vol ethanol. After 3 h, the abaxial epidermis of cotyledons was affixed to a glass slide with Telesis 5 silicone adhesive (Premiere Products) and bright-field images were taken with a Zeiss-LSM 780 NLO confocal microscope. For each biological replicate, width and length of 30 to 40 stomatal apertures were measured using Image J.

[2] = tested on: M82 seeds; experiment: Seed germination assay on ABA-supplemented medium; assay type: in vivo, Tomato (S. lycopersicum); settings: 5 μM ABA, seven days
Method: Seeds of M82 and rop9 mutant plants (50 seeds per genotype) were surface sterilized for 2 min in ethanol followed by 20 min in 3% sodium hypochlorite, washed with excess of water (˜100 ml) and sown on 0.5×MS+1% agar plates (without sucrose) supplemented with 0.1% ethanol (mock) or 1 or 5 μM ABA (in 0.1% ethanol). Seeds were kept at 4° C. for 48 h for […] and moved to 25° C. in the dark for germination. The percentage of seeds germinated were determined after seven days.

[3] = tested on: M82 and rop9 mutant seedlings; experiment: Primary root elongation assay; assay type: in vivo, Tomato (S. lycopersicum); settings: 1 or 5 μM ABA, 48 h
Method: Seven-day-old M82 and rop9 mutant seedlings were transferred to 0.5×MS+1% agar plates (without sucrose) supplemented with 0.1% ethanol (mock) or 1 or 5 μM ABA in 0.1% ethanol, and root lengths were marked. Root elongation was measured after 48 h.

[4] = tested on: P5CS1 and RAB18 expression; experiment: QPCR of ABA-responsive genes; assay type: cell-based, Tomato (S. lycopersicum); settings: M82, rop9-1 and rop9-4 cotyledons, 50 μM ABA
Method: For expression of ABA induced genes, total RNA was extracted from mock-treated or ABA-treated cotyledons or from 2- to 3-week-old soil-grown plants using the RNeasy Plant Mini Kit (Qiagen). cDNAs were prepared using the High-capacity cDNA Reverse Transcription Kit (Applied Biosystems). Oligonucleotide primers for tubulin, P5CS1, and RAB18 were identical to those used by Nir et al. (2017, ibid). Expression was normalized to tubulin. Gene expression of the M82 mock-treated samples was set to 1, and then remaining samples were calculated proportionately. Data are the means (±SE) of three independent biological replicates.

[5] = tested on: ROS levels in guard cells; experiment: ROS measurements in guard cells (H2DCF fluorescence); assay type: cell-based, Tomato (S. lycopersicum)
Method: Reactive oxygen species (ROS) levels in guard cells were monitored using a fluorescence-based assay with 2′,7′-dichlorofluorescien diacetate (H2DCF-DA). Abaxial epidermises of cotyledons were mounted on microscope slides with medical adhesive Telesis V and loaded with stomatal opening buffer with 50 μM H2DCF-DA for 30 min. Excess H2DCF-DA was removed by washing with water, and samples were loaded with 0.1% ethanol (mock) or 10 μM ABA in opening buffer. After 15 min, fluorescence images were collected using a Zeiss-LSM 780 NLO confocal microscope. Fluorescence measured from about thirty stomata of each biological replicate was determined using Image J.

[6] = tested on: ROP activity in guard cells; experiment: Distribution of GFP-ICR1ΔN ROP activity probe in guard cells; assay type: cell-based; settings: Arabidopsis guard cells, 10 μM ABA, one hour
Method: Expression of GFP-ICR1ΔN was induced in 7-days old Arabidopsis seedlings with 5 μM β-estradiol dissolved in 99.5% DMSO. After 24 h of induction plants were treated with control (0.5× Murashige Skoog (MS) medium supplemented with 0.1% ETOH (control) or with 10 μM ABA dissolved in 0.1% ETOH. Analysis of GFP-ICR1ΔN distribution was carried out 1 h after treatments with control or ABA supplemented media using Zeiss LSM 780-NLO confocal microscope by excitation at 488 nm and emission spectrum at 501-546 nm using 40× and 63× water objectives. Image analyses were performed with ZEN 2012 Digital Imaging and Image J.
To follow the regulation of ROP activity in guard cells a fluorescent probe which is specifically expressed in guard cells was generated. The probe consists GFP fused to the […] C-terminal residues of ROP effector ICR1 (between residues 171-344) and was designated GFP-ICRΔN. […] To prevent possible steric hindrance of the ICRΔN moiety by GFP, a flexible linker consisting of 3 repeats of (Gly)4Ser (3×GGGGS) sequence were cloned between the ICRΔN and the GFP moieties. To prevent negative effects that could occur due to long-term expression of a ROP effector, the expression of the probe was induced by estradiol under regulation of the ROP11 promoter. […] The distribution of the probe between the membrane and cytoplasm reflected the degree of ROP activation. […]

CC1=CC(=O)CC(C)(C)[C@@]1(O)/C=C/C(C)=C\C(=O)O [ABA, Abscisic acid]
stomata aperture (width/length) ([1]; M82, rop9-1 and rop9-4 cells, 10 μM ABA (positive control)): expected closing of stomata were observed
stomata aperture (width/length) ([1]; M82 cotyledons, 1 or 10 μM ABA, 3 h under light): induced stomata closure
seed germination [2]: significantly inhibited
root elongation [3]: inhibited to a similar extent in M82 and the rop9 mutants
expression of P5CS1 and RAB18 [4]: induced to a similar extent by ABA in both wild-type and mutant leaves
H2DCF signal ([5]; M82 guard cells, 10 μM ABA, 15 min): induced significant enhancement
H2DCF signal ([5]; rop9-1 and rop9-4 guard cells, 10 μM ABA, 15 min): significantly reduced the signal
distribution of the probe between plasma membrane and cytoplasm [6]: significant shift of the probe from the plasma membrane to the cytoplasm

c1ccc2c(c1)[I+]c1ccccc1-2 [DPI, Diphenyleneiodonium chloride]
stomata aperture (width/length) ([1]; M82 stomata, 5 μM DPI): had no effect
stomata aperture (width/length) ([1]; rop9-1 and rop9-4 stomata, 5 μM DPI): induced opening
H2DCF signal ([5]; rop9-1 and rop9-4 guard cells treated with ABA, 5 μM DPI): decreased the H2DCF signal

Reference: US12270041B2, “ROP—deficient plants having high water use efficiency” (RAMOT AT TEL-AVIV UNIVERSITY LTD., priority 2019, dated 2025)
